Legend:
[1] = tested on: intracellular amastigotes of Leishmania panamensis (MHOM/CO/87/UA140-EGFP strain); experiment: In vitro antileishmanial activity on intracellular amastigotes (GFP, flow cytometry); format: cell-based; settings: for EC50: Leishmania panamensis, U-937, 72 h, intracellular amastigotes of L. panamensis in U-937 cells, 72 h, mean ± SD; for SI (index of selectivity, IS = LC50/EC50): LC50 U-937 / EC50 L. panamensis amastigotes
Procedure: Antileishmanial activity of compounds was determined according to the ability of the compound to reduce the infection by L. panamensis parasites. For this, the antileishmanial activity was tested on intracellular amastigotes of L. panamensis transfected with the green fluorescent protein gene (MHOM/CO/87/UA140-EGFP strain). Briefly, U-937 human cells at a density of 3 × 10^5 cells/mL in RPMI 1640 and 0.1 μg/mL of PMA (phorbol-12-myristate-13-acetate) were dispensed on 24-wells microplate and then infected with stationary phase growing L. panamensis promastigotes in 15:1 parasites per cell ratio. Plates were incubated at 34 °C and 5% CO2 for 3 h and then cells were washed twice with phosphate buffer solution (PBS) to eliminate not internalized parasites. Fresh RPMI-1640 was added into each well (1 mL) and plates were incubated again. After 24 h of infection, the RPMI-1640 medium was replaced by fresh culture medium containing each compound at four serial dilutions (50, 12.5, 3.125 and 0.78 μg/mL) and plates were then incubated at 37 °C and 5% CO2 during 72 h, then, cells were removed from the bottom plate with 100 μL of EDTA/Trypsin (250 mg) solution. The cells were centrifuged at 1100 rpm during 10 min at 4 °C, the supernatant was discarded and cells were washed with 1 mL of cold PBS and centrifuged at 1100 rpm for 10 min at 4 °C. Cells were washed two times employing PBS, as previously, and after the last wash, the supernatant was discarded and cells were suspended in 500 μL of PBS.
Cells were analyzed by flow cytometry employing a flow cytometer (cytomics FC 500MPL, Beckman Coulter. Pasadena, CA, USA) reading at 488 nm (exciting) and 525 nm (emitting) over an argon laser and counting 10,000 events. Infected cells were determined according the events for green fluorescence (parasites). All determinations for each compound and standard drug were carried out by triplicate, in two experiments. Infected cells exposed to control drug (amphotericin B) were used as control for antileishmanial activity (positive control) while infected cells incubated in absence of any compound or drug were used as control for infection (negative control). Nonspecific fluorescence was corrected by subtracting fluorescence of unstained cells. Determinations were done by triplicate in at least two independent experiments.
Antileishmanial activity was determined according reduction of percentage of fluorescent parasites determined according to the median fluorescence intensity (MFI), obtained for each experimental condition by cytometry. The parasite values for each concentration of compound were calculated by Equation (3), where the % of parasites in the control well, corresponds to 100% of parasites. % parasites = (MFI exposed parasites/MFI unexposed parasites) × 100(3)
Then, inhibition percentage was calculated with Equation (4):% inhibition of parasites = 100 − (% parasites)(4)
Results of antileishmanial activities were expressed as the median effective concentrations (EC50) measured by Probit method.

[2] = in vitro; settings: human
Procedure: Cytotoxicity of the compounds was evaluated over human monocytes (U-937 ATCC CRL-1593.2) in exponential growing phase and, adjusted at 1 × 10^5 cells/mL in RPMI-1640 enriched with 10% fetal bovine serum (FBS). One hundred microliters of cell suspension were dispensed in each well of a 96-wells microplate and then, 100 μL of each compound or standard drug (amphotericin B) at four serial dilution concentrations (200, 50, 12.5 and 3.125 μg/mL) were added dissolved in pbs with 0.5% DMSO. Cell exposed to compounds or standard drugs were incubated 72 h at 37 °C and 5% of CO2. Cytotoxic activity of each compound was determined according to the effect on the cell viability by the MTT microenzymatic method in which 3-(4,5-dimethylthiazol-2-yl)- 2,5-diphenyltetrazolium bromide is reduced to a purple product named formazan by mitochondrial enzyme succinate dehydrogenase. Thus, 10 μL/well of MTT solution (5 mg/mL) were added to each well of exposed and unexposed cells, and plates were incubated at 37 °C, 5% CO2 during 3 h. The reaction was stopped by adding 100 μL/well of isopropanol with 50% and 10% of SDS (sodium dodecyl sulfate). The concentration of formazan was determined spectrophotometrically at 570 nm (Varioskan Flash Multimode Reader, Thermo Scientific, Waltham, MA, USA) and intensity of color (absorbance) was registered as O.D. Cells exposed to control drug (amphotericin B) were used as control for toxicity (positive control) while cell incubated in absence of any compound or drug were used as control for viability (negative control). Non-specific absorbance was corrected by subtracting absorbance (O.D) of the blank. Determinations were done by triplicate in at least two independent experiments.
Cytotoxicity was determined according to viability and mortality percentages obtained for each experimental condition (synthetized compounds, amphotericin B and culture medium). Results were expressed as the mean lethal concentrations (LC50), concentration necessary to kill 50% of cells, calculated by the parametric method of linear regression that permits doses-response analysis (Probit analysis).
Initially, viability percentages were calculated by Equation (1), where the O.D of control well, corresponds to 100% of viability. % viability = (O.D exposed cells/O.D unexposed cells) × 100(1)
Then, the percentage of cell growth inhibition was calculated using Equation (2):% inhibition = 100 − (% Viability)(2)
The toxicity was defined according to LC50 values, using the follow scale: Toxic; LC50 < 100 μM; moderately toxic; LC50 > 100 μM and <200 μM and potentially nontoxic; LC50 > 200 μM.

Row | SMILES | EC50 [1] [µM] | CC50 at 72 h [2] [µM] | SI (index of selectivity, IS = LC50/EC50) [1]
1 | C[C@@H]1[C@H](O)[C@@H](C)/C=C/C=C/C=C/C=C/C=C/C=C/C=C/[C@H](O[C@@H]2O[C@H](C)[C@@H](O)[C@H](N)[C@@H]2O)C[C@@H]2O[C@](O)(C[C@@H](O)C[C@@H](O)[C@H](O)CC[C@@H](O)C[C@@H](O)CC(=O)O[C@H]1C)C[C@H](O)[C@H]2C(=O)O [Amphotericin B, reference compound] | 0.32 | 39.6 ± 8.7 | 
2 | CC1CC(=O)c2ccccc2S1 (stereo not shown) [Compound 1a, 2-Methylthiochroman-4-one] |  | 604 ± 86.4 | 1.36
3 | CC1CC(=O)c2cc(F)ccc2S1 (stereo not shown) [Compound 1b, 6-Fluoro-2-methylthiochroman-4-one] |  | 579 ± 59.1 | 1.37
4 | O=C1CCSc2ccc(F)cc21 [Compound 1c, 6-Fluorothiochroman-4-one] | > 110 | 705 | <6.42
5 | O=C1CCSc2c1ccc1c2C(=O)CCS1 [Compound 1d, 2,3,8,9-Tetrahydro-4H,10H-thiopyran[2,3-f]thiochromene-4,10-dione] | > 80 | 279 ± 36.4 | <3.49
6 | O=C1CC(C(=O)O)Sc2ccccc21 (stereo not shown) [Compound 1e, 4-Oxothiochroman-2-carboxylic acid] | > 96.1 | 143 ± 16.8 | <1.48
7 | O=C1CCSc2ccc([N+](=O)[O-])cc21 [Compound 1f, 6-Nitrothiochroman-4-one] | > 95.6 | > 200 | 
8 | Nc1ccc2c(c1)C(=O)CCS2 [Compound 1g, 6-Aminothiochroman-4-one] | > 112 | 118 ± 10.5 | <1.100
9 | O=C1CC(c2ccccc2)Sc2ccccc21 (stereo not shown) [Compound 1h, 2-Phenylthiochroman-4-one] | 44.1 ± 0.9 | > 41.6 | 
10 | O=C1CC(c2ccc(C(F)(F)F)cc2)Sc2ccccc21 (stereo not shown) [Compound 1i, 2-(4-(Trifluoromethyl)-phenyl)-thiochroman-4-one] | 61.4 ± 1.62 | > 649 | >10.56
11 | O=C1CC(c2ccc(C(F)(F)F)cc2)Sc2ccc(F)cc21 (stereo not shown) [Compound 1j, 6-Fluoro-2-(4-(trifluoromethyl)-phenyl)thiochroman-4-one] | 80.3 ± 12.1 | 129 ± 3.45 | 1.60
12 | O=C1CC(c2ccc(Cl)cc2)Sc2ccccc21 (stereo not shown) [Compound 1k, 2-(4-Chlorophenyl)-thiochroman-4-one] | > 72.8 | 64.4 ± 3.98 | <0.90
13 | O=C1CC(c2ccc(F)cc2)Sc2ccccc21 (stereo not shown) [Compound 1l, 2-(4-Fluorophenyl)-thiochroman-4-one] | 93.6 ± 11 | 72.9 ± 9.87 | 0.78
14 | O=C1CC(c2ccc([N+](=O)[O-])cc2)Sc2ccccc21 (stereo not shown) [Compound 1m, 2-(4-Nitrophenyl)-thiochroman-4-one] | > 70.1 | > 701 | 
15 | O=c1ccsc2ccc([N+](=O)[O-])cc12 [Compound 2f, 6-Nitro-4H-thiochromen-4-one] | 36.8 ± 1.74 | > 965 | >26.26
16 | O=c1cc(-c2ccc(C(F)(F)F)cc2)sc2ccccc12 [Compound 2i, 2-(4-(Trifluoromethyl)-phenyl)-4H-thiochromen-4-one] | 161 ± 20.5 | 522 ± 314 | 3.24
17 | O=c1cc(-c2ccc(C(F)(F)F)cc2)sc2ccc(F)cc12 [Compound 2j, 6-Fluoro-2-(4-(trifluoromethyl)-phenyl)-4H-thiochromen-4-one] | 52.3 ± 8.92 | 51.4 ± 11.6 | 0.98
18 | O=c1cc(-c2ccc(Cl)cc2)sc2ccccc12 [Compound 2k, 2-(4-Chlorophenyl)-4H-thiochromen-4-one] | > 73.3 | > 733 | 
19 | O=c1cc(-c2ccc(F)cc2)sc2ccccc12 [Compound 2l, 2-(4-Fluorophenyl)-4H-thiochromen-4-one] | > 78 | 503 ± 382 | <6.45
20 | O=c1cc(-c2ccc([N+](=O)[O-])cc2)sc2ccccc12 [Compound 2m, 2-(4-nitrophenyl)-4H-thiochromen-4-one] | > 70.6 | > 706 | 
21 | CC1CC(=O)c2ccccc2S1(=O)=O (stereo not shown) [Compound 3a, 2-Methylthiochroman-4-one 1,1-dioxide] | > 95.2 | > 825 | 
22 | CC1CC(=O)c2cc(F)ccc2S1(=O)=O (stereo not shown) [Compound 3b, 6-Fluoro-2-methylthiochroman-4-one 1,1-dioxide] | > 87.7 | > 876 | 
23 | O=C1CCS(=O)(=O)c2ccc(F)cc21 [Compound 3c, 6-Fluorothiochroman-4-one 1,1-dioxide] | > 93.5 | > 934 | 
24 | O=C1CC(c2ccccc2)S(=O)(=O)c2ccccc21 (stereo not shown) [Compound 3h, 2-Phenylthiochroman-4-one 1,1-dioxide] | 217 ± 34.9 | 529 ± 52.9 | 
25 | O=C1CC(c2ccc(C(F)(F)F)cc2)S(=O)(=O)c2ccccc21 (stereo not shown) [Compound 3i, 2-(4-(Trifluoromethyl)-phenyl)-thiochroman-4-one 1,1-dioxide] | 84.8 ± 3.23 | 62.9 ± 10.3 | 0.74
26 | O=C1C=C(c2ccc(C(F)(F)F)cc2)S(=O)(=O)c2ccc(F)cc21 [Compound 4j, 6-Fluoro-2-(4-(trifluoromethyl)-phenyl)-4H-thiochromen-4-one 1,1-dioxide] |  | > 561 | 

From paper PMC6149949, “Synthesis and Evaluation of Thiochroman-4-One Derivatives as Potential Leishmanicidal Agents” (Molecules : A Journal of Synthetic Chemistry and Natural …, 2017)
